ChEMBL document CHEMBL3808382, “Discovery and Structure-Activity Relationship of a Bioactive Fragment of ELABELA that Modulates Vascular and Cardiac Functions” (J Med Chem, 2016)
Active and inactive are the calls of the source. The rule behind the calls is not given here.

Assays:
[1] = target: T1, Apelin receptor (Homo sapiens, UniProt P35414); experiment: Agonist activity at human APJ receptor expressed in HEK-293 cells assessed as dissociation of G-alpha-i1 protein after 5 mins by BRET assay; type: cell-based, HEK293
T1 sequence (P35414 whole entry): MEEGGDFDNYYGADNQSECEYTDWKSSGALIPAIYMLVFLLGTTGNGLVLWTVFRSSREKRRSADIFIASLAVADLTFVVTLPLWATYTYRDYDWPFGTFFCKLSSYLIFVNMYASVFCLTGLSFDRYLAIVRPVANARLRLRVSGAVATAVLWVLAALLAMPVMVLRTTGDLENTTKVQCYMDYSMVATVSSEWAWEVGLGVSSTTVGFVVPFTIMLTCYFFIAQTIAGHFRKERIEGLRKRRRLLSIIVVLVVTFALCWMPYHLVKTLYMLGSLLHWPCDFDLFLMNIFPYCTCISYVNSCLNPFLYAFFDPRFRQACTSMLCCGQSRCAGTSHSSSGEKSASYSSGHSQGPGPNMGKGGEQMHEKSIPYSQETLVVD

[2] = target: T1, Apelin receptor; experiment: biochemical; type: cell-based, HEK293
[3] = target: T1, Apelin receptor; experiment: Agonist activity at human APJ receptor expressed in HEK-293 cells assessed as beta-arrestin2 recruitment after 30 mins by BRET assay; type: cell-based, HEK293
[4] = test system: Plasma; experiment: Drug level in rat plasma treated with ELA at 37 degC after 2 hrs by HPLC-MS analysis; type: ADME, cell-free
[5] = test system: Rattus norvegicus; experiment: Change in plasma volume in Sprague-Dawley rat at 36 pmol/g/min, iv through 24 hrs infusion measured during compound dosing; type: functional, organism-based
[6] = test system: Rattus norvegicus; experiment: Hypotensive activity in anesthetized Sprague-Dawley rat assessed as induction of hypotensive rebound at 6.5 to 293 nmol/kg, iv as bolus dose; type: functional, organism-based
[7] = test system: Rattus norvegicus; experiment: Increase in daily urine output in Sprague-Dawley rat at 36 pmol/g/min, iv through 24 hrs infusion measured during compound dosing; type: functional, organism-based
[8] = test system: Rattus norvegicus; experiment: Hypotensive activity in anesthetized Sprague-Dawley rat assessed as maximal change in heart rate at 293 nmol/kg, iv as bolus dose; type: functional, organism-based
[9] = test system: Rattus norvegicus; experiment: Decrease in urine osmolality in Sprague-Dawley rat at 36 pmol/g/min, iv through 24 hrs infusion relative to control; type: functional, organism-based
[10] = test system: Heart; experiment: Inotropic activity in Langendorff perfused Sprague-Dawley rat heart assessed as increase in left ventricular developed pressure at 0.03 nM relative to control; type: functional; conditions: Heart left ventricle
[11] = test system: Rattus norvegicus; experiment: Decrease in K+ concentration in Sprague-Dawley rat urine at 36 pmol/g/min, iv through 24 hrs infusion relative to control; type: functional, organism-based
[12] = test system: Rattus norvegicus; experiment: Inotropic activity in Sprague-Dawley rat assessed as induction of left ventricular fractional shortening at 36 pmol/g/min, iv through 24 hrs infusion measured after 6 to 24 hrs by echocardiography; type: functional, organism-based; conditions: Heart left ventricle
[13] = test system: Rattus norvegicus; experiment: Change in water intake in Sprague-Dawley rat at 36 pmol/g/min, iv through 24 hrs infusion measured during compound dosing; type: functional, organism-based
[14] = test system: Rattus norvegicus; experiment: Decrease in Na+ concentration in Sprague-Dawley rat urine at 36 pmol/g/min, iv through 24 hrs infusion relative to control; type: functional, organism-based
[15] = test system: Rattus norvegicus; experiment: Hypotensive activity in anesthetized Sprague-Dawley rat assessed as drop in mean arterial pressure at 650 nmol/kg, iv as bolus dose; type: functional, Artery
[16] = Half life in rat plasma at 37 degC; type: ADME, cell-free
[17] = test system: Heart; experiment: Inotropic activity in Langendorff perfused Sprague-Dawley rat heart assessed as increase in left ventricular developed pressure; type: functional, tissue-based; conditions: Heart left ventricle
[18] = test system: Rattus norvegicus; experiment: Hypotensive activity in anesthetized Sprague-Dawley rat at 65 nmol/kg, iv as bolus dose; type: functional, organism-based

For `CSCC[C@H](NC(=O)[C@@H]1CSSC[C@H](N)C(=O)N[C@@H](CC(C)C)C(=O)N[C@@H](CCC(N)=O)C(=O)N[C@@H](CCCNC(=N)N)C(=O)N[C@@H](CCCNC(=N)N)C(=O)N1)C(=O)N1CCC[C@H]1C(=O)N[C@@H](CC(C)C)C(=O)N[C@@H](Cc1cnc[nH]1)C(=O)N[C@@H](CO)C(=O)N[C@@H](CCCNC(=N)N)C(=O)N[C@H](C(=O)N1CCC[C@H]1C(=O)N[C@@H](Cc1ccccc1)C(=O)N1CCC[C@H]1C(=O)O)C(C)C`, the EC50 [1] was 6.6 nM, the Ki [2] was 0.23 nM and the EC50 [3] was 151 nM.

With `CSCC[C@H](NC(=O)[C@@H]1CSSC[C@H](NC(=O)[C@H](CC(N)=O)NC(=O)[C@H](Cc2c[nH]cn2)NC(=O)[C@H](CCCCN)NC(=O)[C@H](CCCNC(=N)N)NC(=O)[C@H](CC(C)C)NC(=O)[C@@H](N)CCCCN)C(=O)N[C@@H](CC(C)C)C(=O)N[C@@H](CCC(N)=O)C(=O)N[C@@H](CCCNC(=N)N)C(=O)N[C@@H](CCCNC(=N)N)C(=O)N1)C(=O)N1CCC[C@H]1C(=O)N[C@@H](CC(C)C)C(=O)N[C@@H](Cc1c[nH]cn1)C(=O)N[C@@H](CO)C(=O)N[C@@H](CCCNC(=N)N)C(=O)N[C@H](C(=O)N1CCC[C@H]1C(=O)N[C@@H](Cc1ccccc1)C(=O)N1CCC[C@H]1C(=O)O)C(C)C` the Drug metabolism [4] was “metabolite_detected”.

In the case of `CSCC[C@@H](NC(=O)[C@@H](CS)NC(=O)[C@@H](CCCNC(=N)N)NC(=O)[C@H](CCCNC(=N)N)NC(=O)[C@H]1CCC(=O)N1)C(=O)N1CCC[C@@H]1C(=O)N[C@H](CC(C)C)C(=O)N[C@H](Cc1cnc[nH]1)C(=O)N[C@H](CO)C(=O)N[C@H](CCCNC(=N)N)C(=O)N[C@@H](C(=O)N1CCC[C@@H]1C(=O)N[C@H](Cc1ccccc1)C(=O)N1CCC[C@@H]1C(=O)O)C(C)C`, the Activity [5] is reported as “inactive”, the Activity [6] is reported as “inactive” and the Activity [7] is reported as “Active”. The Activity [8] was “Active”, the Activity [9] was “Active” and the Activity [10] was “Active”. The Activity [11] was “Active”, the Activity [12] was “Active” and the Activity [13] was “inactive”. For the same molecule, the Activity [14] was “Active”.

`CSCC[C@H](NC(=O)[C@@H](N)CS)C(=O)N1CCC[C@H]1C(=O)N[C@@H](CC(C)C)C(=O)N[C@@H](Cc1cnc[nH]1)C(=O)N[C@@H](CO)C(=O)N[C@@H](CCCNC(=N)N)C(=O)N[C@H](C(=O)N1CCC[C@H]1C(=O)N[C@@H](Cc1ccccc1)C(=O)N1CCC[C@H]1C(=O)O)C(C)C` gave an Activity [15] of 10 mmHg.

With `CSCC[C@H](NC(=O)[C@H](CS)NC(=O)[C@H](CCCNC(=N)N)NC(=O)[C@H](CCCNC(=N)N)NC(=O)[C@@H]1CCC(=O)N1)C(=O)N1CCC[C@H]1C(=O)N[C@@H](CC(C)C)C(=O)N[C@@H](Cc1cnc[nH]1)C(=O)N[C@@H](CO)C(=O)N[C@@H](CCCNC(=N)N)C(=O)N[C@H](C(=O)N1CCC[C@H]1C(=O)N[C@@H](Cc1ccccc1)C(=O)N1CCC[C@H]1C(=O)O)C(C)C` the half-life [16] was < 2 min and the EC50 [17] was 0.0015 nM.

With H-QRPVNLTMR-OH the Drug metabolism [4] was “metabolite_detected”.

For `CSCC[C@H](NC(=O)[C@H](N)CS)C(=O)N1CCC[C@H]1C(=O)N[C@@H](CC(C)C)C(=O)N[C@@H](Cc1cnc[nH]1)C(=O)N[C@@H](CO)C(=O)N[C@@H](CCCNC(=N)N)C(=O)N[C@H](C(=O)N1CCC[C@H]1C(=O)N[C@@H](Cc1ccccc1)C(=O)N1CCC[C@H]1C(=O)O)C(C)C`, the Activity [18] was “inactive”.
